Source: US7897387B2, “Fungal cell wall synthesis gene” (Eisai R&D Management Co., Ltd., priority 2000, dated 2011)
Values after ≈ are worked out from the molar mass of the structure shown.

Legend:
Type in all cases: cell-based
[1] = tested on: process that transports GPI-anchored proteins to the cell wall; assay: S. cerevisiae reporter system (cephalosporinase-CWP2 fusion, CW63 strain); conditions: S. cerevisiae reporter system of Example A2, cell wall fraction
Experimental: Since sensitivity of the enzyme reaction is better with cephalosporinase compared to lysozyme, S. cerevisiae introduced with pRCW63T (S. cerevisiae CW63 strain) was used for the screening of compounds.
(§1) After stationary cultivation in YPD liquid medium at 30° C. for 48 hours, the yeast cell culture was diluted 100 times with YPD liquid medium (3-5×10^5 cells/ml) and 75 μl/well aliquots thereof were inoculated into a V-bottomed 96-well plate containing 25 μl/well of a diluted test sample, and this was subjected to stationary cultivation at 30° C. for 48 hours. After centrifuging the plate, 25 μl of the supernatant was sampled and placed in a flat-bottomed 96-well plate, and this was used as the culture supernatant fraction.
The precipitated cells were suspended, and 75 μl/well aliquots of Zymolyase (Seikagaku Corporation) solution prepared with 2.4 M sorbitol were added and were allowed to react at 30° C. for 1 hour. After centrifuging the plate, 10 μl of the supernatant was sampled and placed in a flat-bottomed 96-well plate, 15 μl of phosphate buffer was added, and this was used as the cell wall fraction.
The cephalosporinase activities in the medium and in the cell wall fraction were measured by adding 200 μM of nitrocefin solution to a pooled sample, and after a certain period of time, stopping the reaction with citric acid buffer, and then measuring the absorbance at 490 nm.
Compounds were evaluated using the S. cerevisiae reporter system of Example A2. The lowest concentration at which cephalosporinase activity in the cell wall fraction became 50% or less compared to that obtained where the compound was not treated, was defined to be the IC50 value.

[2] = tested on: S. cerevisiae CW63/GWT1 strain; assay: Growth of GWT1-overexpressed S. cerevisiae CW63/GWT1 strain; conditions: for sensitivity or resistance of the GWT1-overexpressed strain: GWT1-overexpressed strain compared with wild type strain
Experimental: (§2) S. cerevisiae CW63 strain having a cephalosporinase gene as the reporter gene was cultured by the method according to Example A1, TRP1 of the integration vector was cleaved with EcoRV, and then transformation was carried out by the method of Example A1. GWT1-overexpressed strain (S. cerevisiae CW63/GWT1 strain) was obtained by culturing in SD(Trp^−) medium at 30° C. for 3 days.
(§3) Using S. cerevisiae CW63 strain and GWT1 gene introduced S. cerevisiae CW63/GWT1, activity of the aforementioned compound (Ia) was examined by a method according to the method described in Example A2.

[3] = tested on: C. albicans cell wall; assay: Transmission electron microscopy of the C. albicans cell wall; conditions: C. albicans cultured in the presence of the compound, compared to untreated cells
Experimental: C. albicans which was cultured in Sabouraud Dextrose Liquid Medium (5 ml) containing various concentrations of the test agent at 30° C. for 48 hours, then centrifuged, and collected, was immobilized by potassium permanganate immobilization method, and the transmission electron microscope image thereof was observed.
This flocculent fibrous structure was not influenced by other existing antifungal agents.

[4] = tested on: S. cerevisiae CW63 strain; assay: Fungal growth of S. cerevisiae CW63 strain by visual observation; conditions: FIG. 2
Experimental: as §1
Furthermore, fungal growth in the presence of the test sample was determined by visual observation.

[5] = tested on: process that transports GPI-anchored proteins to the cell wall; assay: Reporter system in S. cerevisiae overexpressing the GWT1 gene product (CW63/GWT1 strain); conditions: 0.39 to 1.56 μg/ml, FIG. 6
Experimental: as §2, §3

[6] = tested on: mutant GWT1 gene (R1 or R5); assay: Growth of GWT1-disrupted S. cerevisiae clone harbouring mutant GWT1 gene (R1 or R5) plasmid; conditions: chromosomal GWT1 disrupted, pRS316GWT1-R1 or pRS316GWT1-R5, medium containing the compound
Experimental: S. cerevisiae LW63 strain having a lysozyme gene as the reporter gene due to introduction of pRLW63T was treated with ethyl methanesulfonate, then by culturing in a SD medium containing the aforementioned compound of the formula (Ia) at concentrations of 1.56, 3.13, and 6.25 μg/ml at 37° C. for 3 days, five resistant mutant strains (R1 to R5) were obtained. […] To confirm whether or not these two mutant strains have mutations on the GWT1 gene, genomic DNAs were extracted from both mutant strains, and the nucleotide sequence of the GWT1 gene portion was determined. As a result, in the R1 mutant strain, guanine at position 1213 had been mutated to adenine. Furthermore, in the R5 mutant strain, guanine at position 418 had been mutated to adenine. Therefore, it was elucidated that in the R1 mutant strain, the 405th amino acid, […], and in the R5 mutant strain, the 140th amino acid, glycine, had been changed to arginine.
Next, to confirm whether or not these mutations are the cause of the acquisition of the specific resistant characteristic to the aforementioned compound of the formula (Ia), the mutant GWT1 gene (R1 or R5) was isolated using the genomic DNAs derived from both mutant strains as templates and the primers of SEQ ID NOs: 60 and 61. […]

[7] = tested on: GWT1-deficient strain; assay: Growth of GWT1-deficient S. cerevisiae strain
Experimental: His5 cassette containing the GWT1 sequence on both ends was amplified by PCR using the his5 gene of S. pombe (Longtine M S et al, Yeast, 14: 953-961, 1998) as template and SEQ ID NO:25 and SEQ ID NO:26 as primers.
S. cerevisiae G2-10 was cultured and the cells were collected by the method according to Example A1, and the abovementioned PCR product was transformed by the method according to Example A1. A GWT1-deficient strain was obtained by cultivation in SD(His^−) medium at 30° C. for 5 to 7 days.

[8] = tested on: adhesion of C. albicans to animal cells; assay: Adhesion of C. albicans to animal cells (IEC-18); conditions: 1.56 μg/ml, immobilized IEC-18 cells, FIG. 3
Experimental: Three-milliliter aliquots of IEC-18 cells (1×10^5 cells/ml in D-MEM medium (Nissui Pharmaceutical) containing 10% fetal calf serum and 2 mM glutamine) were placed in each well of a 6-well multi-well plate. The plate was incubated in a carbon dioxide gas incubator at 37° C. for 3 days, the culture supernatant was removed, and ethanol immobilization was carried out.
C. albicans cultured in Sabouraud Dextrose Liquid Medium containing various concentrations of the test sample at 30° C. for 48 hours was adjusted to 4×10^2 cells/ml, and 1 ml was inoculated into each well of the plate in which the immobilized IEC-18 cells were cultured. After cultivation at 30° C. for 1 hour, the culture supernatant was removed, washed with PBS, and then 2 ml of Sabouraud Dextrose Agar Medium (Difco) was superposed. After cultivation at 30° C. overnight, the number of colonies (CFU) that had grown was counted and the adhesion rate was calculated.

[9] = tested on: C. albicans; assay: Growth of C. albicans in the presence of the compound

Structure (SMILES) | IC50 (lowest concentration at which cephalosporinase activity in the cell wall fraction became 50% or less compared to no compound) [1] [µg/mL] | sensitivity or resistance of the GWT1-overexpressed strain [2] | other results
CCCCc1ccc(Cc2nccc3ccccc23)cc1 [Example B2, 1-(4-Butylbenzyl)isoquinoline] | 0.39 (≈ 1.42 µM) | – | –
CC(=O)NCC#Cc1ccc(Cc2nccc3ccccc23)cc1 [Example B60, N-{3-[4-(1-Isoquinolylmethyl)phenyl]-2-propynyl}acetamide] | 6.25 (≈ 19.9 µM) | – | –
CC(=O)N(C)CCCc1ccc(Cc2nccc3ccccc23)cc1 [Example B73, N-{3-[4-(1-isoquinolylmethyl)phenyl]propyl}-N1-methylacetamide] | 50 (≈ 150 µM) | – | –
CCCCc1ccc(Cc2nccc3ccccc23)c(O)c1 [Example B85, 5-Butyl-2-(1-isoquinolylmethyl)phenol] | 0.20 (≈ 0.686 µM) | – | –
CCCCc1ccc(Cc2nccc3sccc23)cc1 [Example B187, 4-(4-Butylbenzyl)thieno[3,2-c]pyridine] | 0.78 (≈ 2.77 µM) | – | –
CCCCc1ccc(Cc2nccc3ccsc23)cc1 [Example B195, 7-(4-Butylbenzyl)thieno[2,3-c]pyridine] | 0.39 (≈ 1.39 µM) | – | –
CCCCc1ccc(Cc2ncccc2OC)cc1 [Example B231, 2-(4-Butylbenzyl)-3-methoxypyridine] | 0.78 (≈ 3.05 µM) | – | –
CCCCc1ccc(Cc2nccc(OC)c2OC)cc1 [Example B242, 2-(4-Butylbenzyl)-3,4-dimethoxypyridine] | 0.78 (≈ 2.73 µM) | – | –
C[C@@H]1[C@H](O)[C@@H](C)/C=C/C=C/C=C/C=C/C=C/C=C/C=C/[C@H](O[C@@H]2O[C@H](C)[C@@H](O)[C@H](N)[C@@H]2O)C[C@@H]2O[C@](O)(C[C@@H](O)C[C@@H](O)[C@H](O)CC[C@@H](O)C[C@@H](O)CC(=O)O[C@H]1C)C[C@H](O)[C@H]2C(=O)O [amphotericin B] | – | sensitive | –
CCCCNC(=O)n1c(NC(=O)OC)nc2ccccc21 [benomyl] | – | sensitive | –
CCCCc1ccc(Cc2nccc3ccccc23)cc1 [compound (Ia), 1-(4-butylbenzyl)isoquinoline] | – | showing resistance | flocculent fibrous structure of the outermost layer of the cell having high electron density [3]: disappeared leaving a small amount of the layer with high electron density; concentration at which growth inhibition was observed [4]: ≥ 3.13 µg/mL; growth inhibition ([2]; CW63/GWT1 strain, >3.13 μg/ml, FIG. 6): growth inhibition was not observed; influence on cephalosporinase activity in culture supernatant and cell wall fractions [5]: no influence was observed; resistance of clone expressing a single copy of mutant GWT1 gene (R1 or R5) [6]: resistance to the aforementioned compound of the formula (Ia) was seen; influence on growth of the GWT1-deficient strain [7]: growth is not influenced; adhesion of C. albicans to animal cells [8]: inhibited to about a half; growth inhibition of C. albicans ([9]; 1.56 μg/ml): growth inhibition cannot be observed; growth of C. albicans ([9]; no concentration stated): inhibits the growth
C[C@@H]1C[C@@H]([C@H](O)CC2CC(=O)NC(=O)C2)C(=O)[C@@H](C)C1 [cycloheximide] | – | sensitive | –
